According to patent US12043599B2, “Herbicidal compounds” (SYNGENTA PARTICIPATIONS AG, priority 2018, dated 2024):

How the values were obtained:
Format in all cases: in vivo
Conditions in all cases: 250 g/h, evaluated after 13 days
[1] = test system: Avena fatua (AVEFA); assay: Pre-emergence herbicidal glasshouse test, percentage damage
Method: (§1) Seeds of a variety of test species are sown in standard soil in pots (Lolium perenne (LOLPE), Setaria faberi (SETFA), Alopecurus myosuroides (ALOMY), Echinochloa crus-galli (ECHCG), Avena fatua (AVEFA)). After cultivation for one day (pre-emergence) or after 8 days cultivation (post-emergence) under controlled conditions in a glasshouse (at 24/16° C., day/night; 14 hours light; 65% humidity), the plants are sprayed with an aqueous spray solution derived from the formulation of the technical active ingredient in acetone/water (50:50) solution containing 0.5% Tween 20 (polyoxyethelyene sorbitan monolaurate, CAS RN 9005-64-5). Compounds are applied at […]. The test plants are then grown in a glasshouse under controlled conditions in a glasshouse (at 24/16° C., day/night; 14 hours light; 65% humidity) and watered twice daily. After 13 days for pre and post-emergence, the test is evaluated for the percentage damage caused to the plant. The biological activities are shown in the following table on a five point scale (5=80-100%; 4=60-79%; 3=40-59%; 2=20-39%; 1=0-19%).

[2] = test system: Echinochloa crus-galli (ECHCG); assay: as above
Method: as §1

[3] = test system: Lolium perenne (LOLPE); assay: as above
Method: as §1

[4] = test system: Setaria faberi (SETFA); assay: as above
Method: as §1

[5] = test system: Setaria faberi (SETFA); assay: Post-emergence herbicidal glasshouse test, percentage damage
Method: as §1
Using procedures outlines above, wheat and barley crop plants and a weed species (SETFA) are treated post-emergence with compound A11 of the present invention or comparator compound C1 (Compound A-38 from WO2014/096289) at the application rates indicated. The compounds were also applied to wheat in conjunction with the safener compound cloquintocet-mexyl (CQC) at 50 g/ha.

[6] = test system: Avena fatua (AVEFA); assay: as above
Method: as §1

[7] = test system: Echinochloa crus-galli (ECHCG); assay: as above
Method: as §1

[8] = test system: Lolium perenne (LOLPE); assay: as above
Method: as §1

Row | Structure (SMILES) | AVEFA PRE percentage damage (five point scale) [1] | ECHCG PRE percentage damage (five point scale) [2] | LOLPE PRE percentage damage (five point scale) [3] | SETFA PRE percentage damage (five point scale) [4] | SETFA POST percentage damage (five point scale) [5] | AVEFA POST percentage damage (five point scale) [6] | ECHCG POST percentage damage (five point scale) [7] | LOLPE POST percentage damage (five point scale) [8]
1 | CC#Cc1cc(C)c(C2C(=O)CC3(CCN(C(=O)c4ccc(OC)nn4)CC3)CC2=O)c(C)c1 [Compound A132] | 5 (5=80-100%) | 5 (5=80-100%) | 5 (5=80-100%) | 5 (5=80-100%) | 5 (5=80-100%) | 5 (5=80-100%) | 5 (5=80-100%) | 5 (5=80-100%)
2 | CC#Cc1cc(C)c(C2C(=O)CC3(CCN(C(=O)c4ccnn4C)CC3)CC2=O)c(C)c1 [Compound A136] | 5 (5=80-100%) | 5 (5=80-100%) | 5 (5=80-100%) | 5 (5=80-100%) | 5 (5=80-100%) | 5 (5=80-100%) | 5 (5=80-100%) | 5 (5=80-100%)
3 | CC#Cc1cc(C)c(C2C(=O)CC3(CCN(C(=O)c4cnccc4C)CC3)CC2=O)c(C)c1 [Compound A115] | 3 (3=40-59%) | 5 (5=80-100%) | 5 (5=80-100%) | 5 (5=80-100%) | 5 (5=80-100%) | 5 (5=80-100%) | 5 (5=80-100%) | 5 (5=80-100%)
4 | CC#Cc1cc(C)c(C2C(=O)CC3(CCN(C(=O)NC(=O)C(C)C)CC3)CC2=O)c(C)c1 [Compound A142] | 4 (4=60-79%) | 5 (5=80-100%) | 5 (5=80-100%) | 5 (5=80-100%) | 5 (5=80-100%) | 5 (5=80-100%) | 5 (5=80-100%) | 5 (5=80-100%)
5 | CC#Cc1cc(C)c(C2C(=O)CC3(CCN(C(=O)c4cccc(OC)n4)CC3)CC2=O)c(C)c1 [Compound A110] | 5 (5=80-100%) | 5 (5=80-100%) | 5 (5=80-100%) | 5 (5=80-100%) | 5 (5=80-100%) | 5 (5=80-100%) | 5 (5=80-100%) | 5 (5=80-100%)
6 | CC#Cc1cc(C)c(C2C(=O)CC3(CCN(C(=O)c4nnc(C)o4)CC3)CC2=O)c(C)c1 [Compound A119] | 5 (5=80-100%) | 5 (5=80-100%) | 5 (5=80-100%) | 5 (5=80-100%) | 5 (5=80-100%) | 5 (5=80-100%) | 5 (5=80-100%) | 5 (5=80-100%)
7 | CC#Cc1cc(C)c(C2C(=O)CC3(CCN(C(=O)c4cn(C)cn4)CC3)CC2=O)c(C)c1 [Compound A117] | 2 (2=20-39%) | 5 (5=80-100%) | 4 (4=60-79%) | 5 (5=80-100%) | 5 (5=80-100%) | 5 (5=80-100%) | 5 (5=80-100%) | 5 (5=80-100%)
8 | CC#Cc1cc(C)c(C2C(=O)CC3(CCN(C4=NOC(C)(C)C4)CC3)CC2=O)c(C)c1 [Compound A143] | 4 (4=60-79%) | 5 (5=80-100%) | 5 (5=80-100%) | 5 (5=80-100%) | 5 (5=80-100%) | 5 (5=80-100%) | 5 (5=80-100%) | 5 (5=80-100%)
